Source: ChEMBL document CHEMBL5352406 (Eur J Med Chem, 2022)
pIC50: −log10 of the molar value.

Columns and labels:
[1] = molecular target: CDK9/cyclin T1 (Homo sapiens) (UniProt O60563+P50750); test: Inhibition of CDK9/CyclinT1 (unknown origin) at 500 nM by ADP-Glo kinase assay relative to control; format: protein-complex assay
Acetylcholinesterase = Acetylcholinesterase (Electrophorus electricus, UniProt O42275); test: Inhibition of electric eel AChE using acetylthiocholine […] as substrate for 20 mins by Ellman's method
HCT-116 = test: Antiproliferative activity against human HCT-116 cells assessed as cell growth inhibition after 72 hrs by MTT assay; format: functional
A549 = test: Antiproliferative activity against human A549 cells assessed as cell growth inhibition after 72 hrs by MTT assay; format: functional
MCF7 = test: Antiproliferative activity against human MCF7 cells assessed as cell growth inhibition after 72 hrs by MTT assay; format: functional
SW480 = test: Antiproliferative activity against human SW480 cells assessed as cell growth inhibition after 72 hrs by MTT assay; format: functional
Cholinesterase = Cholinesterase (Equus caballus, UniProt P81908); test: Inhibition of equine serum BuChE using […] as substrate for 20 mins by Ellman's method
CDK2/Cyclin A2 = CDK2/Cyclin A2 (Homo sapiens, UniProt P24941); format: protein-complex assay
Description: Inhibition of human full length CDK2/CyclinA2 by ADP-Glo kinase assay

CDK9/cyclin T1 = CDK9/cyclin T1 (Homo sapiens, UniProt P50750)
Description: Inhibition of CDK9/CyclinT1 (unknown origin) by ADP-Glo kinase assay

[2] = Selectivity index, ratio of IC50 for equine serum BuChE to IC50 for CDK9/CyclinT1 (unknown origin)
[3] = Selectivity index, ratio of IC50 for human full length CDK2/CyclinA to IC50 for CDK9/CyclinT1 (unknown origin)
[4] = Selectivity index, ratio of IC50 for electric eel AChE to IC50 for CDK9/CyclinT1 (unknown origin)

Cholinesterase, sequence (P81908 whole entry): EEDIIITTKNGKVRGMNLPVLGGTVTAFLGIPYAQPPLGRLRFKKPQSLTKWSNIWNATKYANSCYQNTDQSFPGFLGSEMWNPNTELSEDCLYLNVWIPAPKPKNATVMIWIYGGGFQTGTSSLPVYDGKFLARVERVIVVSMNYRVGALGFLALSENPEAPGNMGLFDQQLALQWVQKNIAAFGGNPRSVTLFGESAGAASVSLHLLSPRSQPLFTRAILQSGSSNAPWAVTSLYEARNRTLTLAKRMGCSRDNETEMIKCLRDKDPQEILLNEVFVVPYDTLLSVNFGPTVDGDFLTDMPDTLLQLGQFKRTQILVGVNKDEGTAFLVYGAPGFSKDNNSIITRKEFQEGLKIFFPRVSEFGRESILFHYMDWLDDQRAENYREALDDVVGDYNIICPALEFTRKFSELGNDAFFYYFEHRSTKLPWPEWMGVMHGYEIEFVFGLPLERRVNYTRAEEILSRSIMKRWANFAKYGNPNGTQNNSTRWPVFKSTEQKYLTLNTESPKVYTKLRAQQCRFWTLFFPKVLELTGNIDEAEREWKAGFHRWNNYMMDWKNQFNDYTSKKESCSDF
Acetylcholinesterase, sequence (O42275 whole entry): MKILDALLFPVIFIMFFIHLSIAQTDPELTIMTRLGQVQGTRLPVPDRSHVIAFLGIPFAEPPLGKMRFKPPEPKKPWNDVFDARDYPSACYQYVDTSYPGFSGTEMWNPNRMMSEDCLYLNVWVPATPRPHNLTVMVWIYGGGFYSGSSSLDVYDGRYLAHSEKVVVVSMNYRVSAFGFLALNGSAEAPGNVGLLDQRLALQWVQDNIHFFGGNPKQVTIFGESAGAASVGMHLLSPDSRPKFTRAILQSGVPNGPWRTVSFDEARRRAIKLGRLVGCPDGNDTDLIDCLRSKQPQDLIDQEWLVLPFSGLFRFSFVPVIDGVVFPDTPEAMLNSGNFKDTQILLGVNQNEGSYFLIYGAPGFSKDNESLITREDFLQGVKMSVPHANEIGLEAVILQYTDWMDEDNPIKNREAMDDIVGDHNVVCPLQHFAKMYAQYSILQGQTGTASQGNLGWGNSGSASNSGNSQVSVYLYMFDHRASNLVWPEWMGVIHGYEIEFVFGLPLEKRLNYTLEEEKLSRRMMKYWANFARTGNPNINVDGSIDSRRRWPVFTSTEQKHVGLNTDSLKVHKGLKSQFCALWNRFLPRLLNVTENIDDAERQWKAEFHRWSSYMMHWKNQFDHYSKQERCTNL
CDK9/cyclin T1, sequence (O60563 whole entry): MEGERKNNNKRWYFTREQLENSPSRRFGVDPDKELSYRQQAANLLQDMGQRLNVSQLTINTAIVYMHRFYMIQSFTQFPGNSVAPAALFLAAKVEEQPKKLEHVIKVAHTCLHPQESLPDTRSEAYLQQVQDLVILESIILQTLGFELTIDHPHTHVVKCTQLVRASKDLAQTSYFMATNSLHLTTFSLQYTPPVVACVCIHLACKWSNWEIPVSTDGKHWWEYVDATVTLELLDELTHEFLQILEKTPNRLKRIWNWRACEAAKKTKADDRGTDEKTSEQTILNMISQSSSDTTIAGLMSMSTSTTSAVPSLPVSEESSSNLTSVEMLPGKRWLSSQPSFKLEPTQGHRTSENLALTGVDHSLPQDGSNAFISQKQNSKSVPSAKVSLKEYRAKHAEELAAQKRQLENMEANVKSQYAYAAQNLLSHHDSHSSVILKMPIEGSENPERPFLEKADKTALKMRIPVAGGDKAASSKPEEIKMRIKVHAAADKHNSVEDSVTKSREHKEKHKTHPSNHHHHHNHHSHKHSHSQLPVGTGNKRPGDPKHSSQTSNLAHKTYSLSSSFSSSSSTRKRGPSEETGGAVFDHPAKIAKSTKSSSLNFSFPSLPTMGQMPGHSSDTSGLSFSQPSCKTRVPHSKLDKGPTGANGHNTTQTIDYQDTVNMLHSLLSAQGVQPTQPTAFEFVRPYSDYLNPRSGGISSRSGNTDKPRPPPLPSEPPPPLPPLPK
CDK9/cyclin T1, sequence (P50750 whole entry): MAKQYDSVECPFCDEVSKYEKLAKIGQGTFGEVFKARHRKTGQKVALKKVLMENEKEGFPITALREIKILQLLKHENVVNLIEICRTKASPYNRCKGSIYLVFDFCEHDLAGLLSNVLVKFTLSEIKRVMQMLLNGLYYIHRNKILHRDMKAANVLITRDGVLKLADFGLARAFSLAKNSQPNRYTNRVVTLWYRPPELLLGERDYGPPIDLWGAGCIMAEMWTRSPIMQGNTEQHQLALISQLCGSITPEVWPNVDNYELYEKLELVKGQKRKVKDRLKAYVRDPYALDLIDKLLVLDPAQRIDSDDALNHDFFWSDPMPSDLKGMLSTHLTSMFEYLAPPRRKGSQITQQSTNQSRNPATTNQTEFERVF

Row | Compound | inhibition [1] | pIC50 (Acetylcholinesterase) | GI50 (HCT-116) | GI50 (A549) | GI50 (MCF7) | GI50 (SW480) | pIC50 (Cholinesterase) | pIC50 (CDK2/Cyclin A2) | pIC50 (CDK9/cyclin T1) | Selectivity Index [2] | Selectivity Index [3] | Selectivity Index [4]
1 | N[C@H]1CCN(c2c3c(nc4ccc(-c5ccnc(Nc6cccc(S(=O)(=O)N7CCOCC7)c6)c5)cc24)CCCCC3)C1 | 57.5% | 4.54 | 2000 nM | 3300 nM | 3440 nM | 3200 nM | 5.70 | < 6.30 |  |  |  | 
2 | N[C@H]1CCN(c2c3c(nc4ccc(-c5ccnc(NC(=O)C6CCCC6)c5)cc24)CCCCC3)C1 |  | 4.77 | 134 nM | 83 nM | 210 nM | 65 nM | 5.93 | 7.75 | 8.56 | 425 | 6 | 6180
3 | N[C@H]1CCN(c2c3c(nc4ccc(-c5cc(NC(=O)C6CC6)ncn5)cc24)CCCCC3)C1 |  | 5.14 | 201 nM | 166 nM | 161 nM | 316 nM | 5.41 | 7.83 | 8.24 | 669 | 3 | 1250
4 | N[C@H]1CCN(c2c3c(nc4ccc(-c5ccnc(F)c5)cc24)CCCCC3)C1 | 73% | 4.67 | 3980 nM | 8440 nM | 7080 nM | 4690 nM | 5.65 | < 6.30 |  |  |  | 
5 | N[C@H]1CCN(c2c3c(nc4ccc(-c5ccnc(NC(=O)C6CC6)c5)cc24)CCCCCC3)C1 |  | 4.76 | 14 nM | 52 nM | 65 nM | 34 nM |  | 8.53 |  |  | 2 | 9210
6 | CN(C)S(=O)(=O)c1ccc(Nc2cc(-c3ccc4nc5c(c(N6CC[C@H](N)C6)c4c3)CCCCC5)ccn2)cc1 |  | 4.45 | 2180 nM | 1990 nM | 3110 nM | 1810 nM | 5.98 | < 6.30 | 6.99 | 10 | 0.5 | 346
7 | N[C@H]1CCN(c2c3c(nc4ccc(-c5ccnc(NC(=O)C6CC6)c5)cc24)CCCCC3)C1 |  | 4.51 | 18 nM | 28 nM | 76 nM | 33 nM | 5.71 | 8.26 | 8.66 | 894 | 3 | 14200
8 | N[C@H]1CCN(c2c3c(nc4ccc(-c5ccnc(NC(=O)C6CCC6)c5)cc24)CCC3)C1 |  | 5.75 | 138 nM | 195 nM | 333 nM | 456 nM | 5.50 | 7.07 | 8.19 | 497 | 13 | 275
9 | N[C@@H]1CCN(c2c3c(nc4ccc(-c5ccnc(NC(=O)C6CC6)c5)cc24)CCCCC3)C1 |  |  | 39 nM | 41 nM | 80 nM | 49 nM | 5.32 | 8.19 |  | 2560 | 3 | 
10 | N[C@H]1CCN(c2c3c(nc4ccc(-c5ccncc5)cc24)CCCCC3)C1 |  | 4.61 | 272 nM | 393 nM | 424 nM | 458 nM | 6.37 | < 6.30 | 8.08 | 51 |  | 2970
11 | N[C@H]1CCN(c2c3c(nc4ccc(-c5ccnc(NC(=O)C6CC6)n5)cc24)CCCCCC3)C1 |  | 4.68 | 14 nM | 64 nM | 71 nM | 18 nM | 5.56 | 7.73 | 8.54 | 948 | 7 | 7200
12 | N[C@H]1CCN(c2c3c(nc4ccc(-c5ccnc(NC(=O)C6CCCCC6)c5)cc24)CCCCC3)C1 |  | 4.68 | 262 nM | 308 nM | 404 nM | 1260 nM | 5.78 | 7.23 | 8.66 | 763 | 27 | 9550
13 | N[C@H]1CCN(c2c3c(nc4ccc(-c5ccnc(NC(=O)C6CCC6)c5)cc24)CCCCC3)C1 |  | 4.75 | 86 nM | 77 nM | 168 nM | 80 nM | 5.93 | 7.97 | 8.39 | 288 | 3 | 4290
14 | N[C@H]1CCN(c2c3c(nc4ccc(-c5ccnc(NC(=O)C6CC6)c5)cc24)-c2ccccc2CCC3)C1 |  | < 4.30 | 2670 nM | 1900 nM | 2220 nM | 3050 nM | 5.48 | < 6.30 | 6.95 | 28 |  | 
15 | N[C@H]1CCN(c2c3c(nc4ccc(-c5ccnc(NC(=O)C6CC6)n5)cc24)-c2ccccc2CCC3)C1 | 72.7% | < 4.30 | > 10000 nM | 9470 nM | 6330 nM | 9530 nM | 4.90 | < 6.30 |  |  |  | 
16 | N[C@H]1CCN(c2c3c(nc4ccc(-c5ccnc(NC(=O)C6CC6)c5)cc24)CCCC3)C1 |  |  | 29 nM |  | 109 nM | 328 nM |  |  | 8.65 |  |  | 
17 | N[C@H]1CCN(c2c3c(nc4ccc(-c5ccnc(C(=O)NC6CC6)c5)cc24)CCCCC3)C1 |  | 5.25 | 4740 nM | > 10000 nM | 10400 nM | 9120 nM | 5.30 | < 6.30 | < 6.30 |  |  | 
18 | N[C@H]1CCN(c2c3c(nc4ccc(-c5ccnc(NC(=O)C6CCC6)c5)cc24)CCCCCC3)C1 |  | 4.58 | 46 nM | 109 nM | 108 nM | 118 nM | 6.16 | 8.11 | 8.53 | 235 | 3 | 8920
19 | N[C@H]1CCN(c2c3c(nc4ccc(-c5ccnc(NC(=O)C6CC6)c5)cc24)CCC3)C1 |  | 5.65 | 73 nM | 191 nM | 203 nM | 251 nM | 5.22 | 6.60 | 8.47 | 1790 | 75 | 671
20 | N[C@H]1CCN(c2c3c(nc4ccc(-c5cccnc5)cc24)CCCCC3)C1 |  | 4.86 | > 10000 nM | > 10000 nM | > 10000 nM | > 3000 nM | 6.14 | < 6.30 | < 6.30 |  |  | 
21 | N[C@H]1CCN(c2c3c(nc4ccc(-c5ccccc5)cc24)CCCCC3)C1 |  | 4.72 | 5880 nM | 9530 nM | 4060 nM | 2930 nM | 6.88 | < 6.30 | < 6.30 |  |  | 
22 | N[C@H]1CCN(c2c3c(nc4ccc(-c5nccc(NC(=O)C6CC6)n5)cc24)CCCCC3)C1 |  | 4.75 | > 3000 nM | > 10000 nM | 8390 nM | > 3000 nM | 5.60 | < 6.30 | < 6.30 |  |  | 
